# Values of other authors in patent publication US20020034548A1, “STABILIZED ASCORBIC COMPOSITION” (priority 1998, published 2002).
# How the values were obtained:
# [1] = 5% ascorbic acid solution
# [2] = pH 5.0
smiles,measurement,setting,value
O=C1O[C@H]([C@@H](O)CO)C(O)=C1O [L-ascorbic acid],ascorbic acid deprotonated,2% aqueous solution at 25° C.,About 2.4%
same,pK1,"aqueous solution, room temperature",4.17
same,time to completely decay into oxidized form,[1],a few days
same,redox potential,[2],+0.127 V
